In patent US20260325520A1, “METHODS FOR TREATING OR PREVENTING NEUROENDOCRINE TUMR FORMATION USING CDC7 INHIBITORS” (Memorial Sloan-Kettering Cancer Center, priority 2022, published 2026):

Assays:
Type in all cases: cell-based
[1] = tested on: SCLC cell lines (control and CDC7 KO); assay: Viability of control and CDC7 CRISPR-Cas9 KO cell lines treated with simurosertib; conditions: GI50 concentration
Text: FIG. 1A: CDC7 mRNA expression in cell lines derived from different tumor types. The data was obtained from CCLE through UCSC Xenabrowser portal (https://xenabrowser.net/) in December 2020. Lines indicate the median CDC7 mRNA expression in SCLC cell lines. FIG. 1B: CDC7 protein expression assessed by IHC in NSCLC (N=58) and SCLC (N=45) clinical samples. Protein expression is shown as IHC score. H-score medians and standard deviation are shown. FIG. 1C: Western blot showing CDC7 KO in H82 (SCLC-N) and H146 (SCLC-A) SCLC cell lines. Proliferation (FIG. 1D) and soft agar colony formation (FIG. 1E) assays in isogenic H82 and H146 cell lines with CDC7 KO. In FIG. 1D, lower line graphs correspond to CDC7 KO (sgCDC7). FIG. 1F: Ectopic overexpression of CDC7 in H69 (SCLC-A) and DMS114 (SCLC-Y) SCLC cell lines. Proliferation (FIG. 1G) and soft agar colony formation (FIG. 1H) assays in isogenic H69 and DMS114 cell lines with ectopic CDC7 overexpression. […] FIG. 1I: Bivariate correlation of CDC7 mRNA and protein expression with simurosertib or LY3143921 sensitivity (assessed as growth inhibition) in an array of SCLC cell lines. Correlation was calculated with Spearman's test. […]
(§1) Cytotoxic assays were performed as described in ^19. […] Viability was assessed with the CellTiter-Glo 2.0 Assay (Promega, G9242) as indicated by manufacturer.

[2] = tested on: H1563 (LUAD) cells; assay: Viability of control and TP53/RB1-loss H1563 cells treated with simurosertib; conditions: 0.5 μM; double TP53/RB1 loss versus control or single gene loss
Text: (§2) CDC7 mRNA (FIG. 3A) and protein (FIG. 3B) expression in lung tumor clinical specimens, categorized as control never transformed adenocarcinomas (LUAD), transforming adenocarcinomas (T-LUAD) and small cell carcinomas (T-SCLC) and control de novo small cell carcinomas (SCLC). For FIG. 3B, H-score medians and standard deviation are shown. FIG. 3C: CDC7 mRNA expression in PRAD tumors with or without NE features. Data from Abida et al., PNAS 2019. FIG. 3D: CDC7 protein expression in PRAD and NEPC clinical specimens, as assessed by IHC. H-score medians and standard deviation and representative images (FIG. 3E) are shown. […] FIG. 3G: In vivo treatment of Lx1042 (T-SCLC) and LuCAP49 (NEPC) PDXs was conducted to compare the efficacy of the combination of cisplatin and simurosertib versus that of cisplatin and etoposide. Student's t-test was performed to assess statistical significance (two-tailed, assuming heterogeneous value distribution) p-value legend: *<0.05, **<0.01, ***<0.001. FIG. 3H: CDC7 mRNA expression in adenocarcinoma clinical specimens, categorized by their TP53/RB1 status. Data obtained from LUAD TCGA (PanCancer), LUAD OncoSG (OncoSG, Nat Genetics 2020) and PRAD TCGA (PanCancer). […]
as §1

[3] = tested on: 22PC (PRAD) cells; assay: Viability of control and TP53/RB1-loss 22PC cells treated with simurosertib; conditions: 0.5 μM; double TP53/RB1 loss versus control or single gene loss
Text: as §2, §1

Question: For `Cc1n[nH]cc1-c1cc2nc([C@@H]3CC4CCN3CC4)[nH]c(=O)c2s1` [simurosertib], which “simurosertib sensitivity of CDC7 KO cells” value [1] is on record?
Answer: CDC7 KO rendered the cells resistant to simurosertib

Question: And the simurosertib sensitivity [2]?
Answer: increased simurosertib sensitivity

Question: What about the simurosertib sensitivity [3] of the same molecule?
Answer: increased simurosertib sensitivity
